# Data taken from PubChem BioAssay (NCI).
#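 Step 1: Grow cells in 96-well plates. Step 2: Expose to compound for 48 hours at 5 concentrations. Step 3: Interpolate endpoints linearly; if unreached, use highest concentration. Definition used: TGI = concentration required for complete inhibition of growth.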
# Legend:
# Experiment in all cases: NCI tumour cell line growth inhibition, 48 h
# [1] = system: SK-MEL-2 melanoma
# [2] = system: LOX IMVI melanoma
# [3] = system: SNB-75 CNS
# [4] = system: SN12C renal
# [5] = system: LXFL 529 NSCLC
# [6] = system: SF-268 CNS
# [7] = system: SNB-19 CNS
# [8] = system: ACHN renal
# [9] = system: HOP-62 NSCLC
# [10] = system: TK-10 renal
# [11] = system: M14 melanoma
# [12] = system: OVCAR-5 ovarian
# [13] = system: NCI-H460 lung
# [14] = system: IGROV1 ovarian
# [15] = system: HOP-18 NSCLC
# [16] = system: SF-295 CNS
# [17] = system: SK-OV-3 ovarian
# [18] = system: UACC-257 melanoma
# [19] = system: HCT-116 colon
# [20] = system: K-562 leukemia
# [21] = system: HCT-15 colon
# [22] = system: KM20L2 colon
# [23] = system: M19-MEL melanoma
# [24] = system: MOLT-4 leukemia
# [25] = system: SF-539 CNS
# [26] = system: DMS 273 small cell lung
# [27] = system: XF 498 CNS
# [28] = system: HOP-92 NSCLC
# [29] = system: COLO 205 colon
# [30] = system: RPMI-8226 leukemia
# [31] = system: CCRF-CEM leukemia
# [32] = system: OVCAR-8 ovarian
# [33] = system: SK-MEL-28 melanoma
# [34] = system: HL-60(TB) leukemia
# [35] = system: SNB-78 CNS
# [36] = system: RXF 393 renal
# [37] = system: SR leukemia
# [38] = system: NCI-H23 lung
# [39] = system: NCI-H522 lung
# [40] = system: SK-MEL-5 melanoma
# [41] = system: HCC-2998 colon
# [42] = system: NCI-H226 lung
# [43] = system: UO-31 renal
# [44] = system: DLD-1 colon
# [45] = system: SW-620 colon
# [46] = system: OVCAR-3 ovarian
# [47] = system: EKVX NSCLC
# [48] = system: RXF-631 renal
# [49] = system: KM12 colon
# [50] = system: HT29 colon
# [51] = system: MALME-3M melanoma
# [52] = system: U251 CNS
# [53] = system: 786-0 renal
# [54] = system: DMS 114 small cell lung
# [55] = system: UACC-62 melanoma
compound,measurement,setting,value
COc1cc2c(cc1OC)C1c3ccccc3C(C#N)(C2)N(C(=O)c2ccccc2)C1O (stereo not given),TGI,[1],> 100 µM
same,TGI,[2],> 100 µM
same,TGI,[3],> 100 µM
same,TGI,[4],> 100 µM
same,TGI,[5],> 100 µM
same,TGI,[6],> 100 µM
same,TGI,[7],> 100 µM
same,TGI,[8],> 100 µM
same,TGI,[9],> 100 µM
same,TGI,[10],> 100 µM
same,TGI,[11],> 100 µM
same,TGI,[12],> 100 µM
same,TGI,[13],> 100 µM
same,TGI,[14],> 100 µM
same,TGI,[15],> 100 µM
same,TGI,[16],> 100 µM
same,TGI,[17],> 100 µM
same,TGI,[18],> 100 µM
same,TGI,[19],> 100 µM
same,TGI,[20],> 100 µM
same,TGI,[21],> 100 µM
same,TGI,[22],> 100 µM
same,TGI,[23],> 100 µM
same,TGI,[24],> 100 µM
same,TGI,[25],> 100 µM
same,TGI,[26],> 100 µM
same,TGI,[27],95.9 µM
same,TGI,[28],> 100 µM
same,TGI,[29],53.1 µM
same,TGI,[30],> 100 µM
same,TGI,[31],> 100 µM
same,TGI,[32],> 100 µM
same,TGI,[33],> 100 µM
same,TGI,[34],> 100 µM
same,TGI,[35],> 100 µM
same,TGI,[36],> 100 µM
same,TGI,[37],> 100 µM
same,TGI,[38],> 100 µM
same,TGI,[39],56.4 µM
same,TGI,[40],90 µM
same,TGI,[41],> 100 µM
same,TGI,[42],> 100 µM
same,TGI,[43],> 100 µM
same,TGI,[44],> 100 µM
same,TGI,[45],> 100 µM
same,TGI,[46],> 100 µM
same,TGI,[47],> 100 µM
same,TGI,[48],> 100 µM
same,TGI,[49],> 100 µM
same,TGI,[50],> 100 µM
same,TGI,[51],> 100 µM
same,TGI,[52],> 100 µM
same,TGI,[53],> 100 µM
same,TGI,[54],> 100 µM
same,TGI,[55],> 100 µM
